Measured values published in patent US11759455B2, “Substituted 1H-imidazo[4,5-b]pyridin-2(3H)-ones and their use as GLUN2B receptor modulators” (JANSSEN PHARMACEUTICA NV, priority 2016, dated 2023).
Read-outs that look alike come from different tables or passages of the source.

Biological target: T1, human GluN1/GluN2B NMDA receptors (Homo sapiens, UniProt Q13224)
T1 construct: expressed in transfected cells
Assay: Cell-based calcium flux (FLIPR) assay on cloned human NR1/NR2B ion channels expressed in mammalian cells (standard and HTS buffer variants);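 further: stable Tet-On inducible cell line, Ca2+ influx triggered by glutamate at about EC40 plus 10 µM glycine, fluorescent dye read-out over 5 min, normalized to control wells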

[1] = standard assay buffer (0.5 mM MgCl2 in dye loading buffer; 137 mM NaCl, 4 mM KCl in assay buffer), human GluN1/GluN2B, read-out: NR2B IC50 (μM) standard assay
[2] = standard assay buffer (0.5 mM MgCl2 dye loading; 137 mM NaCl, 4 mM KCl assay buffer), human GluN1/GluN2B cells, read-out: NR2B IC50 (μM) standard assay
[3] = HTS assay buffer (1.5 mM MgCl2 in dye loading buffer; 150 mM NaCl, 3 mM KCl in assay buffer), human GluN1/GluN2B, read-out: NR2B IC50 (μM) HTS assay

T1 sequence (Q13224 27-1484, other chains not shown): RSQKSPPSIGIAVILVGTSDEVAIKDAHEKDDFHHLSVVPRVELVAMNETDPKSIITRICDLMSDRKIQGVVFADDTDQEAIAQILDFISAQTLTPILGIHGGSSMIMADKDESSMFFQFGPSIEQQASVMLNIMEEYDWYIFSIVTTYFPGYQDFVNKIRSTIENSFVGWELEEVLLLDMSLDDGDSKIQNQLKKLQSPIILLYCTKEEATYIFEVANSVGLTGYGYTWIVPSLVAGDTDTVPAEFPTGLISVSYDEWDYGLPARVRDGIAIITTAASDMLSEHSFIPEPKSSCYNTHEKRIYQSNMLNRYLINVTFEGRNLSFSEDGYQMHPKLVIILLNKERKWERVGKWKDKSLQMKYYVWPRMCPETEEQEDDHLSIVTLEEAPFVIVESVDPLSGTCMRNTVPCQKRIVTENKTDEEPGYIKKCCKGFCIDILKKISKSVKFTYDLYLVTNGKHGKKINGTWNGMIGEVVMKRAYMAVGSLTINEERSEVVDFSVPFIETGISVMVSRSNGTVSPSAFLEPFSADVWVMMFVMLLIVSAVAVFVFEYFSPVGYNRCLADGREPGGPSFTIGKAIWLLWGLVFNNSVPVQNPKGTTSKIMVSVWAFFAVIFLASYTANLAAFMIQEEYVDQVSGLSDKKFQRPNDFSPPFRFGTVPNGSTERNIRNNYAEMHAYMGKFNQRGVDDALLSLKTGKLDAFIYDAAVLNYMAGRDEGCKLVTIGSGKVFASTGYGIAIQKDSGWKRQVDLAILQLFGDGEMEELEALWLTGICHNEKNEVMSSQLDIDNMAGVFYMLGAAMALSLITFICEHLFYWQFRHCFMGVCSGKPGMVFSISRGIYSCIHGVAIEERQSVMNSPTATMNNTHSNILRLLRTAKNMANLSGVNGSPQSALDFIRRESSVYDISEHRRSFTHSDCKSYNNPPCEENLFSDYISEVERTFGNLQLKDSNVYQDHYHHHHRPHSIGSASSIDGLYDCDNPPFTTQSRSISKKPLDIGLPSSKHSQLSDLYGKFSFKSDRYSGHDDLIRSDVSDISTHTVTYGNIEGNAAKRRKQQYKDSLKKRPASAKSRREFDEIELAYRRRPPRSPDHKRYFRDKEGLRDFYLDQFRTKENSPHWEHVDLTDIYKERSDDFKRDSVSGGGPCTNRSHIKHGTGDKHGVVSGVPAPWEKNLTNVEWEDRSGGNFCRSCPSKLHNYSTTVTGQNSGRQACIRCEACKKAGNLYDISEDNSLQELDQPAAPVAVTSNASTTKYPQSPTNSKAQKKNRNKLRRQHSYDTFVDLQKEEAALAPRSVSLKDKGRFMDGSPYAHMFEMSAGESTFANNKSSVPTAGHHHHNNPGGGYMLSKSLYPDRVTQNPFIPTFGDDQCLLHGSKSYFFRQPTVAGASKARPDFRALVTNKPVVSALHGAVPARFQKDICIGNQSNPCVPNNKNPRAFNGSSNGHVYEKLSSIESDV

SMILES | IC50 [1] [µM] | IC50 [2] [µM] | also measured
Cc1cncc(Cn2c(=O)[nH]c3ncc(-c4cc(F)cc(F)c4)cc32)c1 [Example 311, 6-(3,5-Difluorophenyl)-1-[(5-methyl-3-pyridyl)methyl]-3H-imidazo[4,5-b]pyridin-2-one] | – | 0.028 | –
COc1cc(F)ccc1-c1cnc2[nH]c(=O)n(CC3CC3)c2c1 [Example 467, 1-(Cyclopropylmethyl)-6-(4-fluoro-2-methoxy-phenyl)-3H-imidazo[4,5-b]pyridin-2-one] | – | – | IC50 [3]: 0.305 µM
O=c1[nH]c2ncc(-c3cccc(C(F)(F)F)c3)cc2n1Cc1cccnc1 [Example 230, 1-(3-Pyridylmethyl)-6-[3-(trifluoromethyl)phenyl]-3H-imidazo[4,5-b]pyridin-2-one] | – | 0.017 | –
O=c1[nH]c2ncc(-c3ccc(F)c(F)c3)cc2n1Cc1ccccn1 [Example 279, 6-(3,4-Difluorophenyl)-1-(2-pyridylmethyl)-3H-imidazo[4,5-b]pyridin-2-one] | – | 5.03 | –
Cc1noc(Cn2c(=O)[nH]c3ncc(-c4ccc(F)cc4)cc32)n1 [Example 140, 6-(4-Fluorophenyl)-1-[(3-methyl-1,2,4-oxadiazol-5-yl)methyl]-3H-imidazo[4,5-b]pyridin-2-one] | – | 0.105 | –
O=c1[nH]c2ncc(-c3cccc(C(F)(F)F)c3)cc2n1CCN1CCC1 [Example 17, 1-[2-(Azetidin-1-yl)ethyl]-6-[3-(trifluoromethyl)phenyl]-3H-imidazo[4,5-b]pyridin-2-one] | – | 0.146 | –
Cc1ccc(C(F)(F)F)cc1-c1cnc2[nH]c(=O)n(CCN3CC(F)C3)c2c1 [Example 185, 1-[2-(3-Fluoroazetidin-1-yl)ethyl]-6-[2-methyl-5-(trifluoromethyl)phenyl]-3H-imidazo[4,5-b]pyridin-2-one] | – | 2.13 | –
Cc1ccncc1Cn1c(=O)[nH]c2ncc(-c3cc(F)c(F)c(F)c3)cc21 [Example 312, 1-[(4-Methyl-3-pyridyl)methyl]-6-(3,4,5-trifluorophenyl)-3H-imidazo[4,5-b]pyridin-2-one] | – | 0.002 | –
CN(C)C(=O)Cn1c(=O)n(C)c2ncc(-c3csc(C(F)(F)F)n3)cc21 [Example 108, N,N-Dimethyl-2-[3-methyl-2-oxo-6-[2-(trifluoromethyl)thiazol-4-yl]imidazo[4,5-b]pyridin-1-yl]acetamide] | – | 0.047 | –
Cc1cncc(Cn2c(=O)[nH]c3ncc(-c4ccc(F)c(C)c4F)cc32)c1 [Example 270, 6-(2,4-Difluoro-3-methyl-phenyl)-1-[(5-methyl-3-pyridyl)methyl]-3H-imidazo[4,5-b]pyridin-2-one] | – | 0.115 | –
Cn1c(=O)n(CC(=O)N2CC(F)C2)c2cc(-c3ccc(C4CC4)s3)cnc21 [Example 106, 6-(5-Cyclopropyl-2-thienyl)-1-[2-(3-fluoroazetidin-1-yl)-2-oxo-ethyl]-3-methyl-imidazo[4,5-b]pyridin-2-one] | – | 0.039 | –
COc1ccc(-c2cnc3[nH]c(=O)n(Cc4ccc(C#N)cc4)c3c2)cc1 [Example 476, 4-[[6-(4-Methoxyphenyl)-2-oxo-3H-imidazo[4,5-b]pyridin-1-yl]methyl]benzonitrile] | – | – | IC50 [3]: 4.53 µM
O=c1[nH]c2ncc(-c3cc(F)cc(F)c3)cc2n1CCN1CCC(O)C1 (stereo not shown) [Example 175, 6-(3,5-Difluorophenyl)-1-[2-(3-hydroxypyrrolidin-1-yl)ethyl]-3H-imidazo[4,5-b]pyridin-2-one] | – | 2.11 | –
O=c1[nH]c2ncc(-c3cccc(OC(F)(F)F)c3)cc2n1Cc1cncc(F)c1 [Example 307, 1-[(5-Fluoro-3-pyridyl)methyl]-6-[3-(trifluoromethoxy)phenyl]-3H-imidazo[4,5-b]pyridin-2-one] | – | 0.088 | –

Further lines, with some results ahead:

IC50 [1] [µM] | IC50 [2] [µM] | SMILES | also measured
0.027 | – | Cn1c(=O)n(CC(=O)N2CCC2)c2cc(-c3cc(F)cc(F)c3)cnc21 [Example 412, 1-[2-(Azetidin-1-yl)-2-oxo-ethyl]-6-(3,5-difluorophenyl)-3-methyl-imidazo[4,5-b]pyridin-2-one] | –
0.19 | – | Cc1cccc(-c2cnc3c(c2)n(Cc2cncc(Cl)c2)c(=O)n3C)c1F [Example 371, 1-[(5-Chloro-3-pyridyl)methyl]-6-(2-fluoro-3-methyl-phenyl)-3-methyl-imidazo[4,5-b]pyridin-2-one] | –
0.026 | – | CCC(=O)Cn1c(=O)n(C)c2ncc(-c3ccc(F)c(C)c3F)cc21 [Example 391, 6-(2,4-Difluoro-3-methyl-phenyl)-3-methyl-1-(2-oxobutyl)imidazo[4,5-b]pyridin-2-one] | –
0.204 | – | CC(C)(C)C(=O)Cn1c(=O)[nH]c2ncc(-c3cccc(C(F)(F)F)c3)cc21 [Example 611, 1-(3,3-Dimethyl-2-oxo-butyl)-6-[3-(trifluoromethyl)phenyl]-3H-imidazo[4,5-b]pyridin-2-one] | –
0.079 | – | Cn1c(=O)n(CC(=O)N2CCCC2)c2cc(-c3ccc(C(F)(F)F)s3)cnc21 [Example 328, 3-Methyl-1-(2-oxo-2-pyrrolidin-1-yl-ethyl)-6-[5-(trifluoromethyl)-2-thienyl]imidazo[4,5-b]pyridin-2-one] | –
0.726 | – | Cc1ccc(-c2cnc3c(c2)n(Cc2cn(C)nn2)c(=O)n3C)s1 [Example 553, 3-Methyl-6-(5-methyl-2-thienyl)-1-[(1-methyltriazol-4-yl)methyl]imidazo[4,5-b]pyridin-2-one] | –
0.28 | – | Cn1cc(Cn2c(=O)n(C)c3ncc(-c4ccc(C(F)F)s4)cc32)nn1 [Example 559, 6-[5-(Difluoromethyl)-2-thienyl]-3-methyl-1-[(1-methyltriazol-4-yl)methyl]imidazo[4,5-b]pyridin-2-one] | –
0.046 | – | COc1cc(F)ccc1-c1cnc2[nH]c(=O)n(Cc3ccccc3C#N)c2c1 [Example 490, 2-[[6-(4-Fluoro-2-methoxy-phenyl)-2-oxo-3H-imidazo[4,5-b]pyridin-1-yl]methyl]benzonitrile] | –
0.037 | – | Cc1cc(Cn2c(=O)n(C)c3ncc(-c4ccc(F)c(C)c4F)cc32)no1 [Example 571, 6-(2,4-Difluoro-3-methyl-phenyl)-3-methyl-1-[(5-methylisoxazol-3-yl)methyl]imidazo[4,5-b]pyridin-2-one] | –
0.013 | – | Cc1c(F)ccc(-c2cnc3c(c2)n(CC(=O)N2CC(F)(F)C2)c(=O)n3C)c1F [Example 414, 1-[2-(3,3-Difluoroazetidin-1-yl)-2-oxo-ethyl]-6-(2,4-difluoro-3-methyl-phenyl)-3-methyl-imidazo[4,5-b]pyridin-2-one] | –
0.467 | – | Cn1cc(Cn2c(=O)n(C)c3ncc(-c4ccc(F)c(F)c4)cc32)nn1 [Example 549, 6-(3,4-Difluorophenyl)-3-methyl-1-[(1-methyltriazol-4-yl)methyl]imidazo[4,5-b]pyridin-2-one] | –
– | 0.018 | Cc1ccncc1Cn1c(=O)[nH]c2ncc(-c3cccc(C(F)(F)F)c3)cc21 [Example 313, 1-[(4-Methyl-3-pyridyl)methyl]-6-[3-b]pyridin-2-one] | –
1.8 | – | COc1ccc(-c2cnc3[nH]c(=O)n(CC4CC4)c3c2)cc1 [Example 471, 1-(Cyclopropylmethyl)-6-(4-methoxyphenyl)-3H-imidazo[4,5-b]pyridin-2-one] | –
0.778 | – | Cn1c(=O)n(Cc2cncc(F)c2)c2cc(-c3cccc(OC(F)(F)F)c3)cnc21 [Example 345, 1-[(5-Fluoro-3-pyridyl)methyl]-3-methyl-6-[3-(trifluoromethoxy)phenyl]imidazo[4,5-b]pyridin-2-one] | –
